From patent US10815224B2, “Monocyclic heteroaryl substituted compounds” (Bristol-Myers Squibb Company, priority 2016, dated 2020)

Biological target: T1, PAR4 (Homo sapiens, UniProt Q96RI0)
T1 construct: expressed in transfected cells; host or cells: HEK293 PAR4 Clone 1.2A (BMS Arctic ID 383940)
T1 sequence (Q96RI0 18-385): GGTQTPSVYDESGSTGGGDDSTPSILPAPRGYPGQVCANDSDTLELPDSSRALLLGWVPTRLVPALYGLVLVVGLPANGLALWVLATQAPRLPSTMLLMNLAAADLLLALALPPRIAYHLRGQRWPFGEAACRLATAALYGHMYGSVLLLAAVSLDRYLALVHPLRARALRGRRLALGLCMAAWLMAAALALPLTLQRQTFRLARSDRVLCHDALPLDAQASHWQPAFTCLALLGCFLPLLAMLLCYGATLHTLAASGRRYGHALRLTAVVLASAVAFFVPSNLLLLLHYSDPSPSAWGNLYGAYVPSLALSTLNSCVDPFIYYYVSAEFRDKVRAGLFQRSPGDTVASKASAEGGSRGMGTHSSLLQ
Test: PAR4 FLIPR assay: calcium mobilization in PAR4-expressing HEK293 cells
Format: cell-based
Text: The FLIPR assay is an exemplary in vitro assay for measuring the activity of the PAR4 antagonists of the present invention. In this assay, intracellular calcium mobilization is induced in PAR4 expressing cells by a PAR4 agonist and calcium mobilization is monitored.
HEK293 cells stably expressing PAR4 were generated by a standard method of transfection of human PAR4 (F2R23) cDNA expression vector and selected based on PAR4 protein expression or mRNA expression. […] Therefore, the same cells were also used to determine selectivity against PAR1 and agonist activity for both receptors.
FLIPR-based calcium mobilization assay in HEK293 cells was used to measure PAR4 antagonism, agonism, and selectivity against PAR1. […] Counter screens for agonist activity and PAR1 antagonist activity were also performed. […] Cells were plated overnight prior to the experiment in a black 384-well Purecoat Amine clear bottom plate (Becton Dickinson Biosciences, San Jose, Calif.) at 10,000 cells/well in 30 μL growth medium and incubated in a humidified chamber at 37° C. with 5% CO2 overnight. Prior to compound addition, the cell medium was replaced with 40 μL of 1× calcium and magnesium-containing Hank's Balanced Saline Solution (HBSS) (with 20 mM HEPES) and 1:1000 diluted fluorescent calcium indicator (Codex Biosolutions, Gaithersburg, Md.). After a 30 minute incubation period at 37° C., and a further 30 minute incubation and equilibration period at room temperature, 20 μL test compound (diluted in 1×HBSS buffer) was added at various concentrations at 0.17% dimethyl sulfoxide (DMSO) final concentration. Changes in fluorescence intensity were measured using a Functional Drug Screening System (FDSS, Hamamatsu, Japan) to determine agonist activities. The cells were then incubated for 30 minutes at room temperature followed by addition of 20 μL of agonist peptide for antagonist activity measurement. […] Compound potency was derived from 11-point concentration-response curves.

Structure (SMILES)	IC50 [nM]
COc1cnc2c(-c3cc(-c4ccccc4)no3)cc(C)cc2n1 [Example 1, 5-(2-methoxy-7-methylquinoxalin-5-yl)-3-phenylisoxazole]	80
Cc1cc(-c2cnn(-c3ccccc3)c2)c2ncc(OC(F)F)nc2c1 [Example 2, 2-(difluoromethoxy)-7-methyl-5-(1-phenyl-1H-pyrazol-4-yl)quinoxaline]	790
Cc1cc(-c2cnc(-c3ccccc3)s2)c2ncc(OC(F)F)nc2c1 [Example 3, 5-(2-(difluoromethoxy)-7-methylquinoxalin-5-yl)-2-phenylthiazole]	330
Cc1cc(-c2ncc(C)s2)c2ncc(OC(F)F)nc2c1 [Example 4, 2-(2-(difluoromethoxy)-7-methylquinoxalin-5-yl)-5-methylthiazole]	520
Cc1cc(-c2ccsn2)c2ncc(OC(F)F)nc2c1 [Example 5, 3-(2-(difluoromethoxy)-7-methylquinoxalin-5-yl)isothiazole]	940
Cc1cc(-c2nc(C)c(-c3cccc(O)c3)s2)c2ncc(OC(F)F)nc2c1 [Example 6, 3-(2-(2-(difluoromethoxy)-7-methylquinoxalin-5-yl)-4-methylthiazol-5-yl)phenol]	1
Cc1cc(-c2ncc(Cc3ccccc3)s2)c2ncc(OC(F)F)nc2c1 [Example 7, 5-benzyl-2-(2-(difluoromethoxy)-7-methylquinoxalin-5-yl)thiazole]	95
C=Cc1csc(-c2cc(C)cc3nc(OC(F)F)cnc23)n1 [Example 8, 2-(2-(difluoromethoxy)-7-methylquinoxalin-5 yl)-4-vinylthiazole]	100
Cc1cc(-c2nc(C)c(-c3ccn[nH]3)s2)c2ncc(OC(F)F)nc2c1 [Example 9, 2-(2-(difluoromethoxy)-7-methylquinoxalin-5-yl)-4-methyl-5-(1H-pyrazol-5-yl)thiazole]	5
Cc1cc(-c2nc(C3CC3)cs2)c2ncc(OC(F)F)nc2c1 [Example 10, 4-cyclopropyl-2-(2-(difluoromethoxy)-7-methylquinoxalin-5-yl)thiazole]	300
Cc1cc(-c2nc(C)c(-c3cc(F)ccc3O)s2)c2ncc(OC(F)F)nc2c1 [Example 11, 2-(2-(2-(difluoromethoxy)-7-methylquinoxalin-5-yl)-4-methylthiazol-5-yl)-4-fluoropheno]	7.5
Cc1cc(-c2nc(C)c(-c3c(O)cccc3F)s2)c2ncc(OC(F)F)nc2c1 [Example 12, 2-(2-(2-(difluoromethoxy)-7-methylquinoxalin-5-yl)-4-methylthiazol-5-yl)-3-fluoropheno]	8.1
Cc1cc(-c2ncc(N3CCCCC3)s2)c2ncc(OC(F)F)nc2c1 [Example 13, 2-(2-(difluoromethoxy)-7-methylquinoxalin-5-yl)-5-(piperidin-1-yl)thiazole]	12
Cc1cc(-c2ncc(-c3cncc(O)c3)s2)c2ncc(OC(F)F)nc2c1 [Example 14, 5-(2-(2-(difluoromethoxy)-7-methylquinoxalin-5-yl)thiazol-5-yl)pyridin-3-ol]	170
Cc1cc(-c2nc(C)c(-c3ccccc3O)s2)c2ncc(OC(F)F)nc2c1 [Example 15, 2-(2-(2-(difluoromethoxy)-7-methylquinoxalin-5-yl)-4-methylthiazol-5-yl)phenol]	5.9
Cc1cc(-c2ncc(-c3ccccc3C(F)(F)F)s2)c2ncc(OC(F)F)nc2c1 [Example 16, 2-(2-(difluoromethoxy)-7-methylquinoxalin-5-yl)-5-(2-(trifluoromethyl)phenyl)thiazole]	110
Cc1cc(-c2ncc(C3CCCCC3)s2)c2ncc(OC(F)F)nc2c1 [Example 17, 5-cyclohexyl-2-(2-(difluoromethoxy)-7-methylquinoxalin-5-yl)thiazole]	75

Structure (SMILES)	IC50 [nM]
COCc1cnc2c(-c3ncc(-c4ccccc4)s3)cc(C)cc2n1 [Example 18, 2-(2-(methoxymethyl)-7-methylquinoxalin-5-yl)-5-phenylthiazole]	6.2
Cc1cc(-c2ncc(-c3cccc(F)c3O)s2)c2ncc(OC(F)F)nc2c1 [Example 19, 2-(2-(2-(difluoromethoxy)-7-methylquinoxalin-5-yl)thiazol-5-yl)-6-fluorophenol]	5.9
Cc1ccc(O)c(-c2cnc(-c3cc(C)cc4nc(OC(F)F)cnc34)s2)c1 [Example 20, 2-(2-(2-(difluoromethoxy)-7-methylquinoxalin-5-yl)thiazol-5-yl)-4-methylphenol]	31
Cc1cc(-c2ncc(-c3cc(F)ccc3O)s2)c2ncc(OC(F)F)nc2c1 [Example 21, 2-(2-(2-(difluoromethoxy)-7-methylquinoxalin-5-yl)thiazol-5-yl)-4-fluorophenol]	8.8
Cc1cc(-c2ncc(-c3cc(Cl)ccc3O)s2)c2ncc(OC(F)F)nc2c1 [Example 22, 2-(2-(2-(difluoromethoxy)-7-methylquinoxalin-5-yl)thiazol-5-yl)-4-chlorophenol]	18
Cc1cc(-c2ncc(-c3cccc(Cl)c3O)s2)c2ncc(OC(F)F)nc2c1 [Example 23, 2-(2-(2-(difluoromethoxy)-7-methylquinoxalin-5-yl)thiazol-5-yl)-6-chlorophenol]	14
Cc1cc(-c2ncc(-c3c(O)cccc3F)s2)c2ncc(OC(F)F)nc2c1 [Example 24, 2-(2-(2-(difluoromethoxy)-7-methylquinoxalin-5-yl)thiazol-5-yl)-3-fluorophenol]	8.3
Cc1cc(-c2ncc(-c3cc(O)ccc3F)s2)c2ncc(OC(F)F)nc2c1 [Example 25, 3-(2-(2-(difluoromethoxy)-7-methylquinoxalin-5-yl)thiazol-5-yl)-4-fluorophenol]	15
Cc1cc(-c2ncc(-c3cc(O)cc(F)c3)s2)c2ncc(OC(F)F)nc2c1 [Example 26, 3-(2-(2-(difluoromethoxy)-7-methylquinoxalin-5-yl)thiazol-5-yl)-5-fluorophenol]	23
Cc1cc(-c2ncc(-c3cc(O)ccc3OC(F)(F)F)s2)c2ncc(OC(F)F)nc2c1 [Example 27]	20
Cc1cc(-c2ncc(-c3ccccc3)s2)c2ncc(OC(F)F)nc2c1 [Example 28, 2-(2-(difluoromethoxy)-7-methylquinoxalin-5-yl)-5-phenyl thiazole]	43
Cc1cc(-c2ncc(-c3cccnc3)s2)c2ncc(OC(F)F)nc2c1 [Example 29, 2-(2-(difluoromethoxy)-7-methylquinoxalin-5-yl)-5-(pyridin-3-yl)thiazole]	60
Cc1cc(-c2ncc(-c3ccccc3O)s2)c2ncc(OC(F)F)nc2c1 [Example 30, 2-(2-(2-(difluoromethoxy)-7-methylquinoxalin-5-yl)thiazol-5-yl)phenol]	8.8
CCNC(=O)c1cnc(-c2cc(C)cc3nc(OC)cnc23)s1 [Example 31, N-ethyl-2-(2-methoxy-7-methylquinoxalin-5-yl)thiazole-5-carboxamide]	450
COc1ccc(NC(=O)c2csc(-c3cc(C)cc4nc(OC(F)F)cnc34)n2)cc1 [Example 32, 2-(2-(difluoromethoxy)-7-methylquinoxalin-5-yl)-N-(4-methoxyphenyl)thiazole-4-carboxamide]	2300
Cc1cc(-c2nc(C(=O)N3CCC(CO)CC3)cs2)c2ncc(OC(F)F)nc2c1 [Example 33, (2-(2-(difluoromethoxy)-7-methylquinoxalin-5-yl)thiazol-4-yl)(4-(hydroxymethyl)piperidin-1-yl)methanone]	570
